From publication PMC10675077, “Antimicrobial Properties of New Polyamines Conjugated with Oxygen-Containing Aromatic Functional Groups” (Molecules, 2023)
≈ marks a conversion by molar mass, not a printed value.

Experiments:
Escherichia coli JM101 = assay: MIC, microdilution in culture medium, E. coli; assay type: cell-based; conditions: Escherichia coli, JM101; 20 h, 37 °C; average of at least three experiments; read-out: MIC, Bacteria, E. coli JM101
Description: (§1) The microorganisms used for the susceptibility tests were the bacteria Escherichia coli JM101 and Staphylococcus aureus BHI, and the yeast Saccharomyces cerevisiae strains BY4741 (MAT a his3Δ1 leu2Δ0 met15Δ0 ura3Δ0 (EUROSCARF)) carrying YEplac195 (from EUROSCARF) or YEPlac195-PDR5 (provided by Ayse Banu Demir, Izmir University of Economics, Turkey) plasmids.
(§2) Bacterial strains were usually maintained and grown in an LB medium (0.5% (w/v) yeast extract, 1% (w/v) bactotryptone, and 1% (w/v) NaCl) at 37 °C. For MIC (minimal inhibitory concentration) and MMC (minimal microbicidal concentration) assays, and for the determination of synergies, overnight growth was carried out in 2% (w/v) bactopeptone (BP), and then the cultures were diluted and incubated for several hours in 2% (w/v) BP for ensuring logarithmic growth. Yeast strains were grown in an SC-ura medium (0.17% (w/v) yeast nitrogen base without amino acids and ammonium sulphate, 0.2% (w/v) drop-out without uracil, 0.5% (w/v) (NH4)2SO4, and 2% (w/v) glucose) at 30 °C. Liquid cultures were incubated with shaking (200 rpm). Solid media also contained 2% (w/v) agar.
(§3) For the analysis of the antimicrobial activity, the strategies and indications of Cushnie et al. were considered. The standardised method of microdilution in a culture medium was followed to determine the MIC [55]. In bacterial strains, serial dilutions of the compounds to be tested and the control antibiotics were prepared in phosphate buffer (20 mM, pH 7.4, 0.5 mL) and were mixed with a suspension of bacterial cells in a logarithmic growth phase (in 1% BP, 0.5 mL). The final OD600 of the whole solutions were 0.004 and 0.008 for E. coli and S. aureus cultures, respectively. After 20 h of incubation at 37 °C with shaking, the MIC was determined as the lowest concentration of each compound in which no visible bacterial growth was observed.

S. aureus = assay: Lytic activity, time-kill (OD600), S. aureus; assay type: cell-based, Staphylococcus aureus; conditions: 5 times the MIC
Protocol: (§4) To determine if the compounds showing microbicidal activity induce cell lysis, the procedure described by Fleeman et al. was followed, with the modifications indicated below. The E. coli and S. aureus strains were grown as in the experiments described earlier. The cells corresponding to 1.5 units of OD600 were collected and resuspended in 1% BP after washing in the same medium. They were incubated in a final volume of 1 mL with concentrations 5 times higher than the MIC of the analysed compounds, and OD600 was monitored over time. Other antimicrobial compounds were also used in this study as controls. The experiments were performed in triplicate.

[1] = test system: Staphylococcus aureus BHI; assay: MIC, microdilution in culture medium, S. aureus; assay type: cell-based; conditions: Staphylococcus aureus; 20 h, 37 °C; average of at least three experiments; read-out: MIC, Bacteria, S. aureus BHI
Description: as §1, §2, §3

E. coli [2] = assay: Lytic activity, time-kill (OD600), E. coli; assay type: cell-based, Escherichia coli; conditions: 5 times the MIC
Protocol: as §4

[3] = test system: Saccharomyces cerevisiae BY4741/YEplac195; assay: microbe, parasite or virus in culture; assay type: cell-based; conditions: Saccharomyces cerevisiae; 24 h, 30 °C; average of at least three experiments; read-out: MIC, Yeast, BY4741/ YEplac195
Description: as §1, §2
(§5) The determination of the MIC for yeast strains was carried out following a similar procedure to that of the polyamines and antifungal reference agents: Serial dilutions of each one in phosphate buffer (20 mM, pH 7.4, 0.5 mL) were prepared and mixed with a suspension of yeast cells (OD600 0.04 in SC-ura 2X (VWR, Atlanta, GA, USA), 0.5 mL). […] Experiments were carried out at least three times in all cases.

[4] = test system: Saccharomyces cerevisiae BY4741/YEplac195-PDR5; assay: microbe, parasite or virus in culture; assay type: cell-based; conditions: Saccharomyces cerevisiae, 24 h, read-out: MIC, Yeast, BY4741/ PDR5
Description: as §1, §2, §5

yeast cells = assay: Intracellular ATP by luciferase bioluminescence, yeast; assay type: cell-based, Saccharomyces cerevisiae; conditions: overnight treatment
Protocol: The procedure described by Lehtinen et al. was followed, with the modifications indicated herein. In the case of bacteria, 1.5 OD600 units were incubated overnight in 1 mL of final volume with 5-fold MIC concentrations. Then, the cells were collected, washed 3 times in 20 mM phosphate buffer pH 7.4, and lysed in 200 μL of LS1 (50 mM of glucose, 25 mM of Tris-HCl pH 8.0, and 10 mM of EDTA pH 8.0) containing 5 mg/mL of lysozyme and the same volume of glass beads (425–600 μm), by stirring 10 times for 15 s each. Then, the solution was centrifuged at 14,800× g for 15 min, and the supernatant was used for a luciferase assay. For this purpose, in each well of a microtiter plate, 100 μL of luciferase assay buffer (0.015 M of MgSO4, 0.015 M of KH2PO4 pH 8, 0.004 M of EGTA pH 8, and 2 mM of DTT) was added together to a 50 μL of 0.3 mg/mL luciferin solution in 0.01% (w/v) Triton X-100 and 50 μL of the cell extract. Finally, 15 μL of a 67 μg/mL aqueous solution of luciferase was added. Light emission was immediately detected using a Luminoskan Ascent instrument (Thermo Scientific, Waltham, MA, USA) for 1 s per well. Glass beads, lysozyme, luciferin, and luciferase were purchased from Sigma-Aldrich.
[…] Then, cells were collected and washed as above and resuspended in 500 μL of LS2 (140 mM of NaCl, 1.5 mM of MgCl2, 10 mM of Tris-HCl pH 8.0, and 0.5% (v/v) NP40). Cells were lysed in the presence of 1 volume of glass beads as described above. The next steps were carried out as in the case of bacterial samples.
Experiments were carried out at least in triplicate in all cases, and control drugs and SDS (0.1% (w/v) of the final concentration) were also included.

[5] = Cytotoxicity, flow cytometry viability assay with propidium iodide; assay type: cell-based, human; conditions: human, Jurkat cells (human lymphocytic leukaemia, ATCC TIB-152), 24 h treatment, average of three experiments, read-out: IC50, cytotoxicity on the human Jurkat cell line
Protocol: The cytotoxicity of the compounds was assessed via flow cytometry with a viability assay using propidium iodide (PI), a DNA-binding fluorescent probe not permeant to live cells, which is commonly used to detect dead cells in a population. The human lymphocytic leukaemia Jurkat cell line (ATCC TIB-152) was obtained from the American Type Cell Culture (Sigma-Aldrich) and grown in suspension in an RPMI 1640 medium (Thermo Fisher Scientific, Waltham, MA, USA) supplemented with L-glutamine, antibiotics, and 10% heat-inactivated foetal calf serum (FCS, Thermo Fisher Scientific, Waltham, MA, USA). For the viability assay, cells were seeded in plastic 96-well plates at […] in an RPMI 1640 medium supplemented with 5% FCS. The cells were treated for 24 h with a range of concentrations of the test compounds or with the same volume of phosphate buffer (PBS) in control wells. After incubation, cell suspensions were washed, resuspended in 400 μL fresh medium, and incubated for 5 min at room temperature in the dark with 3.75 μM PI (Sigma-Aldrich). Cell viability was determined via flow cytometry using a Gallios flow cytometer (Beckman Coulter). PI fluorescence was excited with an argon-ion laser at 488 nm and collected through a 620/630 nm band-pass emission. Cellular events were discriminated from debris using forward scatter (FS) and side scatter (SS) signals. Cell aggregates were excluded from analysis based on FS-integral and FS-peak. The gates applied for population discrimination were set manually based on control samples. For each sample, 10,000 events were collected. For further analysis, the cytometric data were exported to Kaluza 2.1 software (Beckman Coulter, Brea, CA, USA). Dead cells were identified and quantified as PI-positive events. The cytotoxic potency of test compounds was quantified using their IC50 values, i.e., the compound concentration at which cell viability is inhibited by 50%, as calculated via curve fitting and determined with the correlation coefficient (R2) using GraphPad Prism 9.0 software. Experiments were carried out in triplicate.

BY4741/PDR5 = assay: Checkerboard titration synergy, BY4741/PDR5; assay type: cell-based, Saccharomyces cerevisiae; conditions: synergistic when FICI ≤0.5
Protocol: (§6) The combined antimicrobial activity of the test compounds with the antibacterial or antifungal control agents was performed under the same conditions used for the MIC determination and following the procedures described by Carton Herrán, Reis de Sá et al. and Zharkova et al.. For each experiment, 16 samples (4 rows × 4 columns) in a total volume of 0.5 mL were prepared in tubes using an array of combinations between the MIC value and 0 μg/mL of the compound to be tested in each row, and between the MIC value and 0 μg/mL of the reference drug in each column. In this way, a variety of mixtures with different concentrations of them alone or in combination was obtained. Briefly, 0.5 mL of a microorganism culture was added to each one of the samples, and after incubation for 24 h with shaking at the appropriate temperature (37 °C or 30 °C), the tubs were visually inspected, and the OD600 was measured. From this information, the fractional inhibitory concentration index (FICI) was calculated according to the formula FIC index = ([A]/[CMI A]) + ([B]/[CMI B]), where [A] and [B] are respective concentrations of tested polyamine and reference drug in their combination effectively inhibiting the growth of bacteria or yeast, and [MIC A] and [MIC B] are the individual MICs of the tested polyamine and reference drug when they are used alone. An interaction is considered synergistic when the FICI value is ≤0.5 [41, 42].
(§7) To confirm the data obtained in the checkerboard assay, 30 μL of a ten-fold dilution of the tubes containing concentrations of half of the MIC of each one of the compounds alone (polyamine to be tested and reference drug) and one fourth of the MIC of each one in combination were also spread in LB or SC-ura plates (according to the microorganism considered in each case) and incubated at 37 °C or 30 °C. The visualisation of these plates was performed after 24 or 48 h, respectively. All these experiments were carried out in triplicate.

BY4741/YEplac195 = assay: Checkerboard titration synergy, BY4741/YEplac195; assay type: cell-based, Saccharomyces cerevisiae; conditions: synergistic when FICI ≤0.5
Protocol: as §6, §7

E. coli JM101 = assay: Minimal bactericidal concentration, E. coli; assay type: cell-based, Escherichia coli; conditions: Escherichia coli, JM101; overnight incubation, plating on LB; bacteriostatic if growth at 4 times the MIC
Protocol: (§8) Once the MIC was known, the samples were prepared as described in the previous section with polyamine concentrations corresponding to the MIC and half, double, and four times its value. After overnight incubation with the microorganisms, 30 μL of a ten-fold dilution of each one was spread in LB (in the case of bacterial strains) or SC-ura (for yeast strains) plates. They were incubated for 20 h at 37 °C (bacteria) or 48 h at 30 °C (yeasts), and the level of growth was determined. […] Experiments were carried out at least three times.

E. coli [6] = assay: Checkerboard titration synergy, E. coli; assay type: cell-based, Escherichia coli; conditions: synergistic when FICI ≤0.5
Protocol: as §6, §7

S. cerevisiae strains = assay: Minimal fungicidal concentration, S. cerevisiae strains; assay type: cell-based, Saccharomyces cerevisiae; conditions: fungistatic = growth on SC-ura plates after incubation at four times the MIC
Protocol: as §8

[7] = test system: Yeast (S. cerevisiae strains); assay: MIC, yeast (strain not specified); assay type: cell-based, Saccharomyces cerevisiae; conditions: Saccharomyces cerevisiae; yeast strain not specified (Tables 5 and 10); read-out: MIC Yeast
Protocol: as §5

SMILES	MIC (Escherichia coli JM101) [µg/mL]	Lytic activity (OD600 over time) (S. aureus)	MIC [1] [µg/mL]	MIC [3] [µg/mL]	MIC [4] [µg/mL]	further results
CC1(C)S[C@@H]2[C@H](NC(=O)[C@H](N)c3ccccc3)C(=O)N2[C@H]1C(=O)O [Ampicillin, reference compound]	2	cellular lysis	0.14			Lytic activity (OD600 over time) (E. coli [2]): OD600 significantly decreased
OC(Cn1cncn1)(Cn1cncn1)c1ccc(F)cc1F [Fluconazole, reference compound]				10	60	Intracellular ATP level relative to untreated cells (yeast cells; 30-fold the MIC): very reduced
C[C@@H]1[C@H](O)[C@@H](C)/C=C/C=C/C=C/C=C/C=C/C=C/C=C/[C@H](O[C@@H]2O[C@H](C)[C@@H](O)[C@H](N)[C@@H]2O)C[C@@H]2O[C@](O)(C[C@@H](O)C[C@@H](O)[C@H](O)CC[C@@H](O)C[C@@H](O)CC(=O)O[C@H]1C)C[C@H](O)[C@H]2C(=O)O [Amphotericin B, reference compound]				1	1	Intracellular ATP level relative to untreated cells (yeast cells; 50-fold the MIC): dramatic decrease
NCCN1CCNCc2cccc(n2)CNCC1 [Compound 5b]	10		200	110	110	IC50 at 24 h [5]: 1250 µg/mL (≈ 5020 µM); Synergy with Amphotericin B (BY4741/PDR5): -; Synergy with Cycloheximide (BY4741/PDR5): positive results and +; Synergy with Amphotericin B (BY4741/YEplac195): -; Synergy with Cycloheximide (BY4741/YEplac195): positive results and +; Synergy with Fluconazole (BY4741/YEplac195): synergic and +; MBC (E. coli JM101): 20 µg/mL (≈ 80.2 µM); Synergy with Ciprofloxacin (E. coli [6]): synergy; Minimal fungicidal concentration (MFC), S. cerevisiae Strains (S. cerevisiae strains): Fungistatic; MIC [7]: 110 µg/mL (≈ 441 µM)
CCCCCCCCCCCCOS(=O)(=O)[O-].[Na+] [SDS]						Intracellular ATP level relative to untreated cells (yeast cells; 0.1% (w/v)): 50–70%
C[C@H]1c2cccc(O)c2C(=O)C2=C(O)[C@]3(O)C(=O)C(C(N)=O)=C(O)[C@@H](N(C)C)[C@@H]3[C@@H](O)[C@@H]21 [Doxycycline, reference compound]	1	not the case	0.25			
